This note sets out measurements from article PMC9037111, “Structure-based design, synthesis, and biological evaluation of novel piperine–resveratrol hybrids as antiproliferative agents targeting SIRT-2” (RSC Advances, 2021).

Holding throughout (assay): sirtuin deacetylase inhibition assay, % inhibition at […] ([…] at […])
Common to all, as to assay type: biochemical

The target of assay [1] is T1, SIRT1 (Homo sapiens, UniProt Q96EB6).
T1 sequence (Q96EB6 2-747): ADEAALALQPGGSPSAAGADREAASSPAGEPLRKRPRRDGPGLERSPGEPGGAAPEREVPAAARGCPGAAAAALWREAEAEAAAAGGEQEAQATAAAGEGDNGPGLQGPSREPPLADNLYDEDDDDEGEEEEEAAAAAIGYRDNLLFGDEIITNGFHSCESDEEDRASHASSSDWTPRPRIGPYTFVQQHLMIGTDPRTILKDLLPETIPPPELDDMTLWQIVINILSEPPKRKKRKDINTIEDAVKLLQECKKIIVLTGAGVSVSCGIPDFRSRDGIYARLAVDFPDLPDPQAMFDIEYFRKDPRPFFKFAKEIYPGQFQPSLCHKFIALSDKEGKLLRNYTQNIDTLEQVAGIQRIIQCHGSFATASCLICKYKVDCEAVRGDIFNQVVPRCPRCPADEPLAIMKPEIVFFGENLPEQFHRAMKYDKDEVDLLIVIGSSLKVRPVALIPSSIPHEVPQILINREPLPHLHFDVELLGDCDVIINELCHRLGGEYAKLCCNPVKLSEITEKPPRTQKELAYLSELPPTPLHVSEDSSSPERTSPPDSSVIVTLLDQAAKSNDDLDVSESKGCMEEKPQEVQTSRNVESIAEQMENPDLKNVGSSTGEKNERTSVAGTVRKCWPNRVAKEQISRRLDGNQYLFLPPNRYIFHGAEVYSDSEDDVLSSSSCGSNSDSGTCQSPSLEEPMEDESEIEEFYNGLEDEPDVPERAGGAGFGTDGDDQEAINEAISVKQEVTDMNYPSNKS

Assay [2] deals with T2, SIRT2 (Homo sapiens, UniProt Q8IXJ6).
T2 sequence (Q8IXJ6 2-389): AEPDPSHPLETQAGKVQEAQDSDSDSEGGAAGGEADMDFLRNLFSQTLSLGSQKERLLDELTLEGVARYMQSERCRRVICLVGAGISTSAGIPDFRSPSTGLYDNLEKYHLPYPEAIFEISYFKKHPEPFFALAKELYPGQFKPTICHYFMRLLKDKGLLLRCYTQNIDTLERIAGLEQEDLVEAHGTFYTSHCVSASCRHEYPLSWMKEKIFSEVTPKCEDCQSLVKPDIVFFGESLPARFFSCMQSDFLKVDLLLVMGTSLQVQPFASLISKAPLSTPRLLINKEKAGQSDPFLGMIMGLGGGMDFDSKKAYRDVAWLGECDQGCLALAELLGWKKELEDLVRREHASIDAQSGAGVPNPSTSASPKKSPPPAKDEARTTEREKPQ

The target of assay [3] is T2, SIRT2. This is another data set of the same source.
For assay [4], the target named is T1, SIRT1. The source holds these as a separate data set.

Structures are written as SMILES. Where two headings read alike, the source gives them in different places.

As a reminder, the inhibition is the percentage by which the read-out fell short of the control. A high value points to strong suppression. As to `CN(C)c1ccc(C=NNC(=O)/C=C/C=C/c2ccc3c(c2)OCO3)cc1` (mixture of isomers) [5d, (2E,4E)-5-(Benzo[d][1,3]dioxol-5-yl)-N′-((E/Z)-4-(dimethylamino)-benzylidene)penta-2,4-dienehydrazide], the inhibition at 50 µM in assay [1] worked out at 48 ± 3%; in assay [2], 70 ± 3%.

Molecule `O=C(/C=C/C=C/c1ccc2c(c1)OCO2)NN=Cc1ccc(O)cc1` [5a, (2E,4E)-5-(Benzo[d][1,3]dioxol-5-yl)-N′-((E,Z)-4-hydroxybenzylidene)penta-2,4-dienehydrazide] displayed an inhibition at 50 µM in assay [3] of 72 ± 3%.

The molecule `O=C(/C=C/C=C/c1ccc2c(c1)OCO2)N/N=C/c1ccc(O)cc1O` [5b, (2E,4E)-5-(Benzo[d][1,3]dioxol-5-yl)-N′-((E)-2,4-dihydroxybenzylidene)penta-2,4-dienehydrazide] had an inhibition at 50 µM in assay [4] of 45 ± 3%.
